Laboratory results from US10889553B2, “Asymmetric triazole benzamide derivatives and the compositions and methods of treatment regarding the same” (NysnoBio Ireland DAC, priority 2017, dated 2021).
Several values for one entry are separate records, joined by “and”; a condition that tells them apart may be missing. Equal entries are not always repeated.

Experiments:
Parkin ligase = biological target: T1, Parkin ligase (Homo sapiens, UniProt O60260); experiment: Activity-Based Probe Assay using Ubiquitin vinyl sulfone probe (TR-FRET); assay type: biochemical; settings: heat activated Parkin, HA-Ub-VS probe, activation EC50; read-out: Probe Assay EC50 (μM) [Example 2]
T1 sequence (O60260 1-465): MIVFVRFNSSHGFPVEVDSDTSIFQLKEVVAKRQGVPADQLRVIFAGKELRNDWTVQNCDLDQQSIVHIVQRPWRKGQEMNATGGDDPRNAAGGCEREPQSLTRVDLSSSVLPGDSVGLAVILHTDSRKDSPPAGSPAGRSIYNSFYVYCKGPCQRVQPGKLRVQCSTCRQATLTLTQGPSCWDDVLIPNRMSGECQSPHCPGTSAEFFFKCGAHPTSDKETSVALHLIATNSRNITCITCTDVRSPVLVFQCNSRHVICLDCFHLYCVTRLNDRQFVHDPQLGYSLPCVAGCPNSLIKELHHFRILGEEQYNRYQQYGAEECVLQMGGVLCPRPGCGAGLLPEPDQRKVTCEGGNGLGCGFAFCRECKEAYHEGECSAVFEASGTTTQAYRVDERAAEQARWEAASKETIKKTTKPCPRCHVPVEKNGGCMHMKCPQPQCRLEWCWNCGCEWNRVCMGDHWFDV
Experimental: An Ubiquitin vinyl sulfone probe can be used that irreversibly binds to the active site cysteine of Parkin ligase. Covalent attachment of the probe to the Parkin can be monitored by TR-FRET. Candidate activator compounds can be identified by increasing the activity of Parkin ligase due to an increase in TR-FRET signal. Screening for activating compounds can be distinguished from the controls as follows: 100% activation signal=Heat activated Parkin+100 nM control activator in DMSO. 0% activation signal=Heat activated Parkin+DMSO only. Parkin activators can be identified by an increase of the 0% activation signal TR-FRET signal. Assay Conditions: Materials: • Assay Plate: White 384 well plate (Corning 3572) • Enzyme: Parkin-His tagged 203 μM (10.5 mg/ml) • Probe: Ubiquitin vinyl-sulfone (HA-Ub-VS Boston Biochem U-212) • DMSO: DMSO (Sigma cat #D4540-100ML) • Reaction Buffer: 50 mM HEPES (pH 8.5), 150 mM NaCl, 0.01% Tween 20, 0.1% BSA • Detection Buffer: 50 mM HEPES (pH 8.5), 150 mM NaCl, 0.01% Tween 20, 0.1% BSA, 800 mM KF • Detection Reagent A: 2.6 nM Anti-6HIS-Eu cryptate and 40 nM Anti-HA-XL665 in detection buffer • Eu cryptate: Anti-6HIS-Eu cryptate (CisBio 61HISKLA) • XL665: Anti-HA-XL665 (CisBio 610HAXLA) Enzyme Reaction (15 Min Pre Incubation Parkin with Activator Only) • Parkin: 40 nM • HA-Ub-VS Probe: 70 nM • Activator/DMSO: 2× Activator/2% DMSO Reaction time: 60 minutes Temperature: 22° C. Total volume: 10 μl reaction Detection Reaction Take […] of Enzyme Reaction above and add 10 μl detection Reagent A under the following conditions: • Reaction time: 60 minutes • Temperature: 22° C. • Total volume: 20 μl
Assay procedure (Using HP D-300 compound dispenser and Bravo for the operation):
1) Heat activate Parkin in reaction buffer (500 μl/1.5 ml tube: Eppendorf Thermomixer 5 minutes, 400 rpm at 58° C. and put on ice until needed).
2) Load assay plate wells with 4.8 μl 84.5 nM Parkin in reaction buffer by use of Bravo.
3) Deliver 0.2 μl 200× activator candidates in DMSO by use of HP D-300 compound dispenser. Highest 200× concentration=[…] and then twofold dilutions.
4) Spin 1000 rpm, 2 minutes, at room temp.
5) Incubate plate for 15 minutes at room temp.
6) Add 5 μl 140 nM HA-Ub-VS Probe in reaction buffer by use of Bravo.
7) Spin 1000 rpm, 2 minutes, at room temp.
8) Incubate plate for 60 minutes at room temp.
9) Add 10 μl 2.6 nM Anti-6HIS-Eu cryptate and 40 nM […] in detection buffer.
10) Spin 1000 rpm, 2 minutes, at room temp.
11) Incubate plate for 60 minutes at room temp.
12) Read plates on Perkin Elmer Envision instrument with the following parameters:
LANCE dual laser protocol loaded into the Envision® software
Top Mirror: LANCE/DELFIA Duel/Bias (Bar code 446)
Emission Filter: APC 665 EM (Bar code 205)
2nd Emission Filter: Europium 615 EM (Bar code 203)
Read 655 nm (channel 1) and 615 nm (channel 2) wavelengths on Envision®
Data Analysis: The Data can be read in CSV files. There are two tables in those CSV files, which are the values of 655 nm (channel 1) and 615 nm (channel 2) wavelengths respectively. The data is converted to an HTRF Ratio=(Channel 1/Channel 2)*10,000
The average of all the 0 μM controls (DMSO only)=BKGD (Background—0% activation). Subtract BKGD from each HTRF Ratio value=HTRF−BKGD. The average of all the […] 100 nM control activator in DMSO controls=Max (100% activation). The following equation is then used to calculate % Activation for each well/candidate as follows: % Activation=(HTRF−BKGD/Max)*100.
Graphpad Prism was used with Transform X values: X=Log(X) and nonlinear regression (dose-response-stimulation): Log(agonist) vs Response−variable slope (four parameters) with constrains set to Bottom=0 and Top=100.
The Activity-Based Probe Assay was performed with various compounds in Tables 1, 2, 3A and 3B.

[1] = Microsomal stability assay, rat liver microsomes; assay type: in vitro ADME; settings: pH 7.4; rat liver microsomes 1.0 mg/mL, 1 μM compound, NADPH; read-out: RLM t1/2
Experimental: Compounds were also tested for metabolic stability in both rat liver microsomes (RLM) and the compounds are tested for human liver microsomes (HLM) and their half-life is calculated (See Tables 5A and 5B). The assay was performed as follows. The total volume for each incubation was 250 μL. A 100 μM DMSO solution of compound (diluted from 10 mM stock solution) was spiked into 50 mM KH2PO4 (pH 7.4) buffer containing liver microsome at a concentration of 1.0 mg/mL. The reaction was initiated by the addition of 50 μL of 1 mM NADPH. The final concentration of each compound was 1 μM (1% DMSO). The positive controls, phenacetin for CYP1A2, diclofenac for CYP2C9, omeprazole for CYP2C19, dextromethorphan for CYP2D6 and midazolam for CYP3A4 were added to a separate tube with the final substrate concentrations of 1 μM (1% DMSO) for evaluating the enzyme activities in the liver microsomes. At 0, 15, 30 and 60 min, an aliquot of 15 μL reaction mixtures were removed and 200 μL of methanol (with internal standard of 25 ng/mL propranolol) was added to quench the reaction. The resulting mixture was centrifuged and supernatant was used for LC-MS/MS analysis.
The signals for each compound, or the metabolites for the probe substrates and the internal standard were integrated and the peak area ratios to internal standard were generated. Percent parent remaining at a specified timepoint was calculated based on the peak area ratios at time 0 (as 100%) for in vitro metabolic stability studies in liver microsome and hepatocyte. The observed rate constant (kobs) for the metabolism of substrates was calculated by plotting the natural log of percentage substrate remaining versus time of incubation with the slope being kobs. The half-life (T1/2) was calculated according to the following equation: T1/2=[…]

A549 (lung) = experiment: Cancer cell proliferation assay (acid phosphatase); assay type: cell-based; settings: Homo sapiens, A549, 72 h, Table 6A; 72 hrs; read-out: A549 IC50
Experimental: (§1) Measurement of the inhibitive effect of compounds on cancer cell proliferation was performed. Various cell lines were tested, including HCT-116 (colon); A549 (lung); TOV-21G (ovarian); Calu-6 (lung); and LS-174T (colon); and cell lines H1703 (Lung) and SKOV3 (ovarian); JEKO-1 (lymophoma); TOV-112D (ovarian) are tested. The assays were performed under the following conditions: Cells are harvested at a concentration of 4×10^4 cells/ml in media. Volumes of 100 μl/well of these cell suspensions were added to a 96 well plate using a multichannel pipette. Plates were gently agitated to ensure an even dispersion of cells over a given plate. Cells were then incubated at 37° C., 5% CO2 overnight. Following this, 100 μl of compound at varying concentrations was added to wells in triplicate. Control wells are those with 100 μl media containing 0.33% DMSO added to cell suspension (this is the equivalent volume of DMSO found in the highest concentration of drug). Plates were then gently agitated, as above, and incubated at 37° C., 5% CO2 for 72 hrs (control wells have reached 80-90% confluency). Assessment of cell proliferation in the presence of the compound was determined by the acid phosphatase assay.
(§2) Following the incubation period of 72 hrs, media was removed from the plates. Each well on the plate was washed twice with 100 μl PBS. This was then removed and 100 μl of freshly prepared phosphatase substrate (10 mM p-nitrophenol phosphate in 0.1M sodium acetate, 0.1% triton X-100, pH 5.5) was added to each well. The plates were then incubated in the dark at 37° C. for 2 hours. Colour development was monitored during this time. The enzymatic reaction was stopped by the addition of 50 μl of 1N NaOH. The plate was read in a dual beam plate reader at 405 nm with a reference wavelength of 620 nm. The absorbance reading of the latter is subtracted from the former, and the effect of the drug on cell proliferation was then measured as a percentage against the control cells (DMSO), which is taken as 0% inhibition.

TOV-21G (ovarian) = experiment: Cancer cell proliferation assay (acid phosphatase); assay type: cell-based; settings: Homo sapiens, TOV21G, 72 h, Table 6A; 72 hrs; read-out: TOV-21G IC50
Experimental: as §1, §2

HCT-116 (colon) = experiment: Cancer cell proliferation assay (acid phosphatase); assay type: cell-based; settings: Homo sapiens, HCT-116, 72 h, Table 6A; 72 hrs; read-out: HCT-116 IC50
Experimental: as §1, §2

Cc1ccccc1C(=O)Nc1nc(NC(=O)C2CCN2)nn1-c1ccccc1 (stereo not drawn) [Compound 5]
EC50 (Parkin ligase): 3 µM | half-life at 1 μM [1]: 131 min

C#Cc1ccccc1C(=O)Nc1nc(NC(=O)c2cccc(N=[N+]=[N-])c2)n(-c2ccccc2)n1 [Compound 8]
EC50 (Parkin ligase): 4 µM | half-life at 1 μM [1]: 71 min

Cc1ccccc1C(=O)Nc1nc(NC(=O)c2cocn2)n(-c2ccccc2)n1 [Compound 9]
EC50 (Parkin ligase): 32 µM | half-life at 1 μM [1]: 58 min

Cc1ccccc1C(=O)Nc1nc(NC(=O)c2ncco2)n(-c2ccccc2)n1 [Compound 10]
EC50 (Parkin ligase): 30 µM | half-life at 1 μM [1]: 27 min

C#Cc1cccc(C(=O)Nc2nc(NC(=O)c3cccc(N=[N+]=[N-])c3)n(-c3ccccc3)n2)c1 [Compound 11]
EC50 (Parkin ligase): 2 µM | half-life at 1 μM [1]: 147 min

C#Cc1cccc(C(=O)Nc2nc(NC(=O)c3ccc(N=[N+]=[N-])cc3)nn2-c2ccccc2)c1 [Compound 12]
EC50 (Parkin ligase): 1 µM and 3 µM | half-life at 1 μM [1]: 126 min

Cc1ccccc1C(=O)Nc1nc(NC(=O)c2cccnn2)n(-c2ccccc2)n1 [Compound 13]
EC50 (Parkin ligase): 7 µM | half-life at 1 μM [1]: 51 min

C#Cc1cccc(C(=O)Nc2nc(NC(=O)c3ccc(N=[N+]=[N-])cc3)n(-c3ccccc3)n2)c1 [Compound 18]
EC50 (Parkin ligase): 1 µM and 3 µM | half-life at 1 μM [1]: 103 min

COc1cccc(C(=O)Nc2nc(NC(=O)c3cccc(OC)c3)n(-c3ccccc3)n2)c1 [Compound 27]
EC50 (Parkin ligase): 3 µM | half-life at 1 μM [1]: 19 min

Cc1ccccc1C(=O)Nc1nc(NC(=O)c2ncccn2)n(-c2ccccc2)n1 [Compound 28]
EC50 (Parkin ligase): 22 µM | half-life at 1 μM [1]: 20 min

C#Cc1cccc(C(=O)Nc2nc(NC(=O)c3cccc(N=[N+]=[N-])c3)nn2-c2ccccc2)c1 [Compound 29]
EC50 (Parkin ligase): 2 µM | half-life at 1 μM [1]: 47 min

Cc1ccccc1C(=O)Nc1nc(NC(=O)c2ccccc2C)n(-c2ccc(N3CCC(O)C3)cc2)n1 (stereo not drawn) [Compound 58]
EC50 (Parkin ligase): 7 µM | IC50 (A549 (lung)): 2600 nM | IC50 (TOV-21G (ovarian)): 2400 nM

O=C(Nc1nc(NC(=O)c2cccnc2)n(-c2ccc(OC(F)(F)F)cc2)n1)c1cccnc1 [Compound 61]
EC50 (Parkin ligase): 12 µM and 10 µM and 13 µM | IC50 (HCT-116 (colon)): 2100 nM | IC50 (TOV-21G (ovarian)): 1400 nM

O=C(Nc1nc(NC(=O)c2cccnc2)n(-c2ccc(C(F)(F)F)cc2)n1)c1cccnc1 [Compound 62]
EC50 (Parkin ligase): 8 µM | IC50 (A549 (lung)): 2000 nM | IC50 (HCT-116 (colon)): 2700 nM

O=C(Nc1nc(NC(=O)c2ccncc2)n(-c2ccc(C(F)(F)F)cc2)n1)c1ccncc1 [Compound 63]
EC50 (Parkin ligase): 3 µM | IC50 (HCT-116 (colon)): 2500 nM

O=C(Nc1nc(NC(=O)c2ccncc2)n(-c2ccc(OC(F)(F)F)cc2)n1)c1ccncc1 [Compound 65]
EC50 (Parkin ligase): 5 µM | IC50 (HCT-116 (colon)): 2500 nM | IC50 (TOV-21G (ovarian)): 2500 nM

Cc1ccccc1C(=O)Nc1nc(-c2cccc(F)n2)nn1-c1ccccc1 [Compound 123]
EC50 (Parkin ligase): 7 µM | half-life at 1 μM [1]: 84 min

Cc1ccccc1C(=O)Nc1nc(-c2ccccc2O)nn1-c1ccc(OC(F)(F)F)cc1 [Compound 137]
EC50 (Parkin ligase): 4 µM | half-life at 1 μM [1]: 73 min

Cc1ccccc1C(=O)Nc1nc(NC(=O)c2c(F)cc(F)cc2F)nn1-c1ccccc1 [Compound 149]
IC50 (HCT-116 (colon)): > 2500 nM | IC50 (TOV-21G (ovarian)): > 2500 nM

Cc1ccccc1C(=O)Nc1nc(NC(=O)c2ccc(F)cc2F)nn1-c1ccccc1 [Compound 150]
IC50 (HCT-116 (colon)): > 2500 nM | IC50 (TOV-21G (ovarian)): > 2500 nM

Cc1ccccc1C(=O)Nc1nc(NC(C)(C)c2ccccc2)nn1-c1ccccc1 [Compound 152]
IC50 (HCT-116 (colon)): > 2500 nM
